The values that follow come from ChEMBL document CHEMBL4334516, “Kinase Chemodiversity from the Arctic: The Breitfussins” (J Med Chem, 2019).

pIC50: −log10 of the molar value.

The target in one experiment is T1, Aurora kinase A (Homo sapiens, UniProt O14965).
T1 sequence (O14965 whole entry): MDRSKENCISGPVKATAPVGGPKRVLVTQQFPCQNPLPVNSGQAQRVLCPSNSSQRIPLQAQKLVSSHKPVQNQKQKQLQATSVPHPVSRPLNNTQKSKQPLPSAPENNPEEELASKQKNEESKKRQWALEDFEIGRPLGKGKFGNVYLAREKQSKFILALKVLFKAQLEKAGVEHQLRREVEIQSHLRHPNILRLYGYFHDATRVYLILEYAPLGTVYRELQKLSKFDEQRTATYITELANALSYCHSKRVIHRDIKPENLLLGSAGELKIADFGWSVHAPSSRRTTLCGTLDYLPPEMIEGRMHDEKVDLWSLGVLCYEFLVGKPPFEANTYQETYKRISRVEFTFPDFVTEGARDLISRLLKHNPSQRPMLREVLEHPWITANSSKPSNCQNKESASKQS
The experiment is described as follows: Inhibition of Aurora A (unknown origin) by [33P]-ATP filter binding kinase assay.

Experiment [1] deals with Serine/threonine-protein kinase SIK3 (Homo sapiens, UniProt Q9Y2K2). The experiment can be described thus: Inhibition of SIK3 (unknown origin) by [33P]-ATP filter binding kinase assay.
Chain of Serine/threonine-protein kinase SIK3 (Q9Y2K2 whole entry): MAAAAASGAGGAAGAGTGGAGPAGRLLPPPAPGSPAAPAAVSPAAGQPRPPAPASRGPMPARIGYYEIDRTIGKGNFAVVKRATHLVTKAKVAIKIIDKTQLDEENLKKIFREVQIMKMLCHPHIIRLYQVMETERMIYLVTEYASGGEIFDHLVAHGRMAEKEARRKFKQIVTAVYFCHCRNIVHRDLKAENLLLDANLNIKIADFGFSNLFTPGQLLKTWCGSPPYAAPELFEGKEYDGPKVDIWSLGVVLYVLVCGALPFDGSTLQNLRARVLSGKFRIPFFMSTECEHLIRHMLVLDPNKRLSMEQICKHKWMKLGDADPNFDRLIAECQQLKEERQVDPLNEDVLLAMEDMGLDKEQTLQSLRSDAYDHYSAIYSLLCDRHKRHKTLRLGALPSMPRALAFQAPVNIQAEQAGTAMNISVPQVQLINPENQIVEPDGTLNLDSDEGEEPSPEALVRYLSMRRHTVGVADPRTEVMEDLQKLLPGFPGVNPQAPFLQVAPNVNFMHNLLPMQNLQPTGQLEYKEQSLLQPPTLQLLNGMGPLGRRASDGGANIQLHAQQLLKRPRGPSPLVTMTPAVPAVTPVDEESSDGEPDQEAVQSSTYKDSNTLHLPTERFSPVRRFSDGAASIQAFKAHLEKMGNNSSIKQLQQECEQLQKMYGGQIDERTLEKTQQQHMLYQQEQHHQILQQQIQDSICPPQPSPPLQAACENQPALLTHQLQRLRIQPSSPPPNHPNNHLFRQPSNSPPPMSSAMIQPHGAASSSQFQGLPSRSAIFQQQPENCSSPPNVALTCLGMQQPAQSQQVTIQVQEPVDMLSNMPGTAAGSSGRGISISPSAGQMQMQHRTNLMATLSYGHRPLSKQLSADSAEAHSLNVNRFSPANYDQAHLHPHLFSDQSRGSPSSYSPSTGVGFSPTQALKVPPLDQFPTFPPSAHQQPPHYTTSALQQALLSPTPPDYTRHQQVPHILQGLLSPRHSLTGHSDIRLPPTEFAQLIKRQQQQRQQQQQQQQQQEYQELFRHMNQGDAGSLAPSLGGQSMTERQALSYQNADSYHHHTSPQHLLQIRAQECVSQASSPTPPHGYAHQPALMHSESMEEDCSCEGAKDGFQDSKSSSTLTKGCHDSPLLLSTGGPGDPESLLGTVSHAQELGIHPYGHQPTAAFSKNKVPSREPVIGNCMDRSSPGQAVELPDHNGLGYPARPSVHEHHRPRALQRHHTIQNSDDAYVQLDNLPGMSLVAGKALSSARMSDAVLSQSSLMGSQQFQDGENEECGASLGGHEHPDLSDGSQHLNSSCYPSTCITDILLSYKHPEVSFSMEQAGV
The subject of another experiment is MOLT-4. The experiment is described as follows: Cytotoxicity in human MOLT4 cells assessed as reduction in cell viability incubated for 72 hrs by MTS assay. It is filed as functional, cell-based. The settings on record: MOLT-4, 72 h. In general terms: Tetrazolium assays rely on reduction of a dye to a coloured formazan, in cell work by metabolically active cells.

A further experiment has as its system SK-BR-3. The experiment is described as follows: Cytotoxicity in human SK-BR-3 cells assessed as reduction in cell viability incubated for 72 hrs by MTS assay. It is filed as functional, cell-based. The settings on record: SK-BR-3, 72 h.
The target in experiment [2] is Serine/threonine-protein kinase pim-1 (Homo sapiens, UniProt P11309). The experiment is described as follows: Inhibition of PIM1 (unknown origin) by [33P]-ATP filter binding kinase assay.
Chain of Serine/threonine-protein kinase pim-1 (P11309 whole entry): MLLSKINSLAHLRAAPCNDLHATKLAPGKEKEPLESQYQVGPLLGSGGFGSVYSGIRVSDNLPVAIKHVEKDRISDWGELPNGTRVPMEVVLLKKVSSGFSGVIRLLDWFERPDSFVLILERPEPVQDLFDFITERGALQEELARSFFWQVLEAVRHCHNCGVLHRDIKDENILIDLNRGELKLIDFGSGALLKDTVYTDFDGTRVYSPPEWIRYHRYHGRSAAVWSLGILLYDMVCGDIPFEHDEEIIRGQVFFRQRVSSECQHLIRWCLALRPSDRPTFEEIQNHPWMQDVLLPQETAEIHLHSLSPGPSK
The next experiment relates to HT-29. The experiment can be described thus: Cytotoxicity in human HT-29 cells assessed as reduction in cell viability incubated for 72 hrs by MTS assay. Type of experiment: functional, cell-based. The note with it: HT-29, 72 h.
Another experiment concerns MV4-11. The experiment can be described thus: Cytotoxicity in human MV4-11 cells assessed as reduction in cell viability incubated for 72 hrs by MTS assay. Type of experiment: functional, cell-based. The settings on record: MV4-11, 72 h.
The target in experiment [3] is Receptor-interacting serine/threonine-protein kinase 2 (Homo sapiens, UniProt O43353). The experiment is described as follows: Inhibition of RIPK2 (unknown origin) by [33P]-ATP filter binding kinase assay.
Chain of Receptor-interacting serine/threonine-protein kinase 2 (O43353 whole entry): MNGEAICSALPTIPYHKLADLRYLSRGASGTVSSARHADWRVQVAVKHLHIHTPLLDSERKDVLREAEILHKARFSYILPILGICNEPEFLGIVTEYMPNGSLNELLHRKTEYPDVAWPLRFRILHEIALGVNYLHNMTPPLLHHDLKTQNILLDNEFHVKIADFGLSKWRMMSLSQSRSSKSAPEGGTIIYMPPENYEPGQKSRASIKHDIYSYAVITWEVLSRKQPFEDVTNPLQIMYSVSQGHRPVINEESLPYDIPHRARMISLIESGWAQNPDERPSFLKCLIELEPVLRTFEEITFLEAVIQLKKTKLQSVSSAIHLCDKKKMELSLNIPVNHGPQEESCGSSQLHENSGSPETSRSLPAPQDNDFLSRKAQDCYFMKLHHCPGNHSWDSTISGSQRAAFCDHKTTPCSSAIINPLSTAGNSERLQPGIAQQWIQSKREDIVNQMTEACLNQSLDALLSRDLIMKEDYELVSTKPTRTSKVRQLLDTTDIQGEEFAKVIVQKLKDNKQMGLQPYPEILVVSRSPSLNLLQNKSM
Experiment [4] deals with T2, Mitogen-activated protein kinase kinase kinase 7 (Homo sapiens, UniProt O43318).
T2 sequence (O43318 whole entry): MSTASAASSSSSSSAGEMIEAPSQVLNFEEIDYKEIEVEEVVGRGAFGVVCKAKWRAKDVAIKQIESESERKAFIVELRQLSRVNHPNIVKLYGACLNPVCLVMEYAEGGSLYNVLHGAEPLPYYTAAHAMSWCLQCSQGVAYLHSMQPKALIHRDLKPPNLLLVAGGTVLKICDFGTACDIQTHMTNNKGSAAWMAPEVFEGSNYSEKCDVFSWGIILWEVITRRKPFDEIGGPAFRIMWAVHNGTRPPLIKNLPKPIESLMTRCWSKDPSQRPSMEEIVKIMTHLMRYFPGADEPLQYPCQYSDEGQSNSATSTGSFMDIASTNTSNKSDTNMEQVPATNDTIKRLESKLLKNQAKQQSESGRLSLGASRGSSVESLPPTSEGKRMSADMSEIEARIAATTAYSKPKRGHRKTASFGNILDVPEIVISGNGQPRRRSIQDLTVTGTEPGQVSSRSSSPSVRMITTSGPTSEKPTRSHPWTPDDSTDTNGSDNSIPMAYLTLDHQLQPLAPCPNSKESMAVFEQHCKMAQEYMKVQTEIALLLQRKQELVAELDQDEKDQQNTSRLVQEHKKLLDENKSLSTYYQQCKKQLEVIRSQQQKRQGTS
The experiment can be described thus: Inhibition of TAK1 (unknown origin) by [33P]-ATP filter binding kinase assay.

Experiment [5] concerns the target Serine/threonine-protein kinase pim-2 (Homo sapiens, UniProt Q9P1W9). The experiment is described as follows: Inhibition of PIM2 (unknown origin) by [33P]-ATP filter binding kinase assay.
Another experiment concerns MDA-MB-468. The experiment is described as follows: Cytotoxicity in human MDA-MB-468 cells assessed as reduction in cell viability incubated for 72 hrs by MTS assay. It is filed as functional, cell-based. The settings on record: MDA-MB-468, 72 h.
Experiment [6] deals with T3, Serine/threonine-protein kinase 17A (Homo sapiens, UniProt Q9UEE5).
T3 sequence (Q9UEE5 whole entry): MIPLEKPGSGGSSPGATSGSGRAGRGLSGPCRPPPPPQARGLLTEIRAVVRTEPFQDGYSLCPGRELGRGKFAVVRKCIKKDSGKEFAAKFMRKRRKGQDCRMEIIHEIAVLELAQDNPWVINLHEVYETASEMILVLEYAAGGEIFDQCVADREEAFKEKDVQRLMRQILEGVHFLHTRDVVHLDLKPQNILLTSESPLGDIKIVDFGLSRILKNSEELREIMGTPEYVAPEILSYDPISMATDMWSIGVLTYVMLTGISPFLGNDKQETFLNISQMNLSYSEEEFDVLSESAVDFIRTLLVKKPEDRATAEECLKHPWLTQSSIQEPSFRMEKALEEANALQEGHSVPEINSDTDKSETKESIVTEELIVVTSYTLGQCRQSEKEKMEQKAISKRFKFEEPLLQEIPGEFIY
The experiment is described as follows: Inhibition of DRAK1 (unknown origin) expressed in HEK293 cells by NanoLuc-luciferase reporter based intracellular ATP competitiveness assay. Type of experiment: cell-based. On the technique in general: A reporter such as luciferase makes a cellular process visible.

Experiment [7] deals with Mitogen-activated protein kinase kinase kinase 11 (Homo sapiens, UniProt Q16584). The experiment can be described thus: Inhibition of MLK3 (unknown origin) by [33P]-ATP filter binding kinase assay.
Chain of Mitogen-activated protein kinase kinase kinase 11 (Q16584 whole entry): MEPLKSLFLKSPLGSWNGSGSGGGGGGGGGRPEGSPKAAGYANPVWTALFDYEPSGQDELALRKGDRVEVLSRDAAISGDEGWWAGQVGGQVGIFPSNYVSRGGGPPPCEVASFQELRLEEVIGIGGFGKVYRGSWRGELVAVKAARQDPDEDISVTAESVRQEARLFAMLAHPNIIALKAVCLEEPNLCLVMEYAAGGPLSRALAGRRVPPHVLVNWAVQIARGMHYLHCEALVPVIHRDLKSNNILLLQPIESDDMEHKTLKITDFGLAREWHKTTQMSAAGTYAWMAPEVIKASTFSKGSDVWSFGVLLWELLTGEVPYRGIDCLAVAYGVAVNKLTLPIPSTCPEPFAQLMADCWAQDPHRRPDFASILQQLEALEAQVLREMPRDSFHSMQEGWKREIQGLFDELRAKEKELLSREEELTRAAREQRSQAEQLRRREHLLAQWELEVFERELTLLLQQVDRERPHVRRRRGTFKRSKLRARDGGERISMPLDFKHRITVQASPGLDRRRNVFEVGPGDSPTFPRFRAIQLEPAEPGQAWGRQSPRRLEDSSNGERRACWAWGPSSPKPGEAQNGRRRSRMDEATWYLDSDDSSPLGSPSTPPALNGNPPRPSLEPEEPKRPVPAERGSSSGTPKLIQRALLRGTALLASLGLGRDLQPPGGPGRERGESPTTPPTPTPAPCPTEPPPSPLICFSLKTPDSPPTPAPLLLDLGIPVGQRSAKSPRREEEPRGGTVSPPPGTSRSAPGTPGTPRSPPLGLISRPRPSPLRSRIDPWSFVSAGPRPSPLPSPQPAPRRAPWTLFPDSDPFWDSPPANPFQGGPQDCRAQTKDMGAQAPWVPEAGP
The subject of a further experiment is MCF7. The experiment can be described thus: Cytotoxicity in human MCF7 cells assessed as reduction in cell viability incubated for 72 hrs by MTS assay. Type of experiment: functional, cell-based. The settings on record: MCF7, 72 h.
The target in a further experiment is Aurora kinase B (Homo sapiens, UniProt Q96GD4). The experiment is described as follows: Inhibition of Aurora B (unknown origin) by [33P]-ATP filter binding kinase assay.
Chain of Aurora kinase B (Q96GD4 whole entry): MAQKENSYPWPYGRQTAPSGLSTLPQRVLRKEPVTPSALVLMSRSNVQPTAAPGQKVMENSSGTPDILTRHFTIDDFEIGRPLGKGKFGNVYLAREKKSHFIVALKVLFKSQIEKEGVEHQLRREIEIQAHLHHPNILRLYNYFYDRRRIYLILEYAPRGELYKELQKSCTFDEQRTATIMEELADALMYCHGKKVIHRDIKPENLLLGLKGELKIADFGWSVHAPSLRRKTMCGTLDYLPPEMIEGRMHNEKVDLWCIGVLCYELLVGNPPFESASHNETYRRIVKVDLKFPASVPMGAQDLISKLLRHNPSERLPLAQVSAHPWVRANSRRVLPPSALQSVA
Another experiment concerns A2058. The experiment is described as follows: Cytotoxicity in human A2058 cells assessed as reduction in cell viability incubated for 72 hrs by MTS assay. It is filed as functional, cell-based. The settings on record: A2058, 72 h.
Experiment [8] addresses T3, Serine/threonine-protein kinase 17A. The experiment is described as follows: Inhibition of Alexa Fluor 647-labeled ATP competitive kinase tracer binding to GST-tagged DRAK1 (unknown origin) by FRET based cell free ATP-competitive tracer displacement assay.
Experiment [9] deals with Mitogen-activated protein kinase kinase kinase 9 (Homo sapiens, UniProt P80192). The experiment is described as follows: Inhibition of MLK1 (unknown origin) by [33P]-ATP filter binding kinase assay.
Chain of Mitogen-activated protein kinase kinase kinase 9 (P80192 whole entry): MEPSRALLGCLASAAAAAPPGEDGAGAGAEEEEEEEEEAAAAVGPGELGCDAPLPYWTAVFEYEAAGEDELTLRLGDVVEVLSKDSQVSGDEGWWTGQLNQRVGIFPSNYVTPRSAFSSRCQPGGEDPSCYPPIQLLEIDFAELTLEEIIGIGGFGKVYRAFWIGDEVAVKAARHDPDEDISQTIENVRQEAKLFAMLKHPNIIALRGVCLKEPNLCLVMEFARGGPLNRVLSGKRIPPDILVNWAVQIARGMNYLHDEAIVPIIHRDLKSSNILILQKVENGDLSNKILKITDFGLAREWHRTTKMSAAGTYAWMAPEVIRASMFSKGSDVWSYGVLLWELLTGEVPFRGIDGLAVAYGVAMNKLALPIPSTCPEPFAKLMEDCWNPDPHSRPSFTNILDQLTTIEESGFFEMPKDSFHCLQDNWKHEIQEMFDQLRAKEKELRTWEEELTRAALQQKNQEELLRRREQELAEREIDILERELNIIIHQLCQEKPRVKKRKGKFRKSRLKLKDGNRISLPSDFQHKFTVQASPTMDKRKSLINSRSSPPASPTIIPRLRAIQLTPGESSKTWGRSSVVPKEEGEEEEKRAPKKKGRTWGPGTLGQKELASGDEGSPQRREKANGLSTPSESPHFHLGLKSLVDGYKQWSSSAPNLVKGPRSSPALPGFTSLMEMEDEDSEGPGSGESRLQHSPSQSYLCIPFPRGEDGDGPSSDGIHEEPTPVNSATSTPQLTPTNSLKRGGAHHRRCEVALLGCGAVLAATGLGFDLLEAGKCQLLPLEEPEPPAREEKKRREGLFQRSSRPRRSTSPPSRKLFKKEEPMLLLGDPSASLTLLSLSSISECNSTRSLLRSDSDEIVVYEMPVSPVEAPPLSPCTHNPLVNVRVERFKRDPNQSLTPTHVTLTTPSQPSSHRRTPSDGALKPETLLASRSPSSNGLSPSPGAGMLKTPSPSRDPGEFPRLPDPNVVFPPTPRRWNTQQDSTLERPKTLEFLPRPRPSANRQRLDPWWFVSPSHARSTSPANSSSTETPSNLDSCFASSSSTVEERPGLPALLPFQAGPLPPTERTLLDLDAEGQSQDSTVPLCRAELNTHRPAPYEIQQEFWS

Chain of Serine/threonine-protein kinase pim-2 (Q9P1W9 whole entry): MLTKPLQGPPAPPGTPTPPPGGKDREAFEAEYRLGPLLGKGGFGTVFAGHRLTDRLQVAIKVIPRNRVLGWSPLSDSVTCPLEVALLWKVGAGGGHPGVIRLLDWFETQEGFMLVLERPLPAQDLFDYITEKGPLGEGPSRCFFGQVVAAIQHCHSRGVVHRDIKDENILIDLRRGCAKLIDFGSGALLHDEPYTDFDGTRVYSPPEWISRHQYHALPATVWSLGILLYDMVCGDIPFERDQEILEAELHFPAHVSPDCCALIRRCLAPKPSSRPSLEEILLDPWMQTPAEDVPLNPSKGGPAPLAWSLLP

Usually pIC50 stands for the negative decadic logarithm of the IC50, by convention in mol/L. As for `COc1cc(Br)cc2[nH]cc(-c3cnc(-c4ccc[nH]4)o3)c12`, the pIC50 on Aurora kinase A is < 5.00; in [1], < 5.00; in the experiment on MOLT-4, < 5.00; with SK-BR-3 it was < 5.00; in [2], 6.05; in the experiment with HT-29 it was < 5.00. The pIC50 was < 5.00 in the experiment with MV4-11; < 5.00 in experiment [3]; 6.00 in [4]; 4.66 in experiment [5]; < 5.00 in the experiment on MDA-MB-468; < 5.00 in [6]. The pIC50 in [7] was 6.30; with MCF7, 5.41; on Aurora kinase B it was 6.05; with A2058 it was < 5.00; in experiment [8], 5.02; in experiment [9], 6.05.

As for `COc1cc2c(-c3cnc(-c4ccc[nH]4)o3)c[nH]c2cc1Br`, the pIC50 at Aurora kinase A is 4.66; in [1], 5.92; in the experiment with MOLT-4, 5.00; in the experiment on SK-BR-3, < 5.00; in experiment [2], 6.70; with HT-29, 5.15. The pIC50 in the experiment with MV4-11 was 5.36; in [3], 5.96; in experiment [4], 5.92; in [5], 4.96; in the experiment on MDA-MB-468 it was < 5.00; in experiment [7] it was 6.22. Besides, the negative-log IC50 (pIC50) in the experiment on MCF7 is 5.07; at Aurora kinase B, 6.10; in the experiment with A2058 it was < 5.00; in experiment [9] it was 6.22.

With `COc1cc(Br)cc2[nH]cc(-c3cnc(-c4ccc(Br)[nH]4)o3)c12`, the pIC50 (at Aurora kinase A; in experiment [1]; with MOLT-4; in the experiment with SK-BR-3; in experiment [2]; with HT-29) was < 5.00 throughout. For the same compound, the pIC50 (in the experiment with MV4-11; in experiment [3]; in experiment [4]; in experiment [5]; with MDA-MB-468; in experiment [6]) was < 5.00 each time. The negative-log IC50 (pIC50) (in experiment [7]; in the experiment with MCF7; at Aurora kinase B; with A2058; in experiment [8]; in [9]) was < 5.00 each time.

In the case of `COc1cc(Br)cc2[nH]cc(-c3oc(-c4ccc[nH]4)nc3I)c12`, the pIC50 (on Aurora kinase A; in experiment [1]; in the experiment with MOLT-4; in the experiment on SK-BR-3; in experiment [2]; in the experiment with HT-29) was < 5.00 each time. In addition, the pIC50 (with MV4-11; in [3]; in experiment [4]; in [5]; in the experiment on MDA-MB-468; in experiment [6]) was < 5.00 in each case. The pIC50 (in experiment [7]; with MCF7; at Aurora kinase B; in the experiment on A2058; in experiment [8]; in [9]) was < 5.00 throughout.
